In patent US20030229906A1, “Methods and compositions for the treatment of disorders of HIV infection” (priority 2002, published 2003):

Key:
HIVAN in transgenic mice = conditions: by inhibiting cellular Cdk9, an enzyme required for HIV-1 Tat to induce LTR-mediated virus transcription; cited from earlier work
[1] = biological target: Src tyrosine kinase (mouse) (UniProt P05480); assay: cell-based or functional assay

| Compound | effect on HIVAN in transgenic mice (HIVAN in transgenic mice) | specific activity of the Src tyrosine kinase (immune-complex kinase assay with [gamma-32P]-ATP and enolase, podocytes transduced with Nef or vector) [1] |
| --- | --- | --- |
| CN1CC[C@H](c2c(O)cc(O)c3c(=O)cc(-c4ccccc4Cl)oc23)[C@H](O)C1 [flavopiridol] | ameliorates HIVAN |  |
| HIV-1 Nef |  | 2.3 fold |
